Measurements reported in patent EP1261587B1, “STILBENE DERIVATIVES, THEIR PREPARATION AND THEIR USE AS ANTIVIRAL AGENTS” (priority 1999, dated 2001).
Structures can show the parent of a compound that is named as a salt. Where two headings read alike, the source gives them in different places.

Key:
[1] = maximal tolerated dose (MTD) determination in mice; format: in vivo
Description: After single application of up to 50 mg/kg by i.v. administration to mice no signs of overt toxicity are observed during 8 days of observation. In detail, the assay is conducted as follows: The assay is designed for the determination of the maximal tolerated dose (MTD) For the MTD determination, three six to eight week old female Balb/c AnCbif Tif mice (Ciba animal farm, Sisseln, Switzerland) per dose group are treated once i.v. The dosage is increased until toxic effects are observed within 7 days after drug treatment. After 7 days the animals are euthanasized and organs are macroscopically inspected. The MTD is the dose where all three animals still survive. For example, when the compounds of examples 2 or 4, trans-5-(Acetoacetylamino)-2-[2-{4-(4,5-dihydro-3-methyl-5-oxo-1H-pyrazol-1-yl)-2-sulfophenyl]ethenyl]-benzenesulfonic acid or N,N'-Bis(trans-4-{2-[4-(3-methyl-5-oxo-4,5-dihydro-1H.-pyrazol-1-yl)-2-sulfo-phenyl]-vinyl}-2-sulfophenyl)-[1,3,5]triazine-2,4,6-triamine, are dissolved in sterile sodium chloride solution 0.9%, the MTD after i.v. administration is > 50 mg/kg.

[2] = molecular target: T1, Tat-TAR complex (recombinant Tat, synthetic TAR duplex) (Human immunodeficiency virus type 1 group M subtype B, UniProt P04608); experiment: competition Tat-TAR gel-shift assay; format: binding, HIV-1
T1 construct: purchased Medical Research Council (MRC), Cambridge, U.K
T1 sequence (P04608 whole entry, one chain of several): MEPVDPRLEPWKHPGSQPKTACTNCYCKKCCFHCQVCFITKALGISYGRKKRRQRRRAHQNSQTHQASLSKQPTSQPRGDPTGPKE
Description: The in vitro inhibition of the interaction between Tat and TAR can be shown by a competition Tat-TAR gel-shift assay. Through binding of the protein (recombinant Tat, Medical Research Council (MRC), Cambridge, U.K. - for the sequence of recombinant Tat see Churcher et al., J. Mol. Biol. 230, 90-110 (1993)) to the RNA (synthetic TAR duplex, Genset, Paris, France; for the sequence see Hamy et al., J. Mol. Biol. 230, 111-123 (1993)), the overall size and the charge/weight ratio of the formed duplex are changed, so that electrophoretic migration through a native polyacrylamide gel is affected. By radioactive labelling of the RNA and subsequent autoradiography, free RNA and complexes can be discriminated based on their relative positions in the gel (Hamy et al., J. Mol. Biol. 230, 111-123 (1993)). If the binding reaction with a test substance is able to prevent the protein binding to the radiolabelled RNA, this competition for binding can be visualized on the autoradiography as a decreased intensity of the retarded band. In more detail, compounds of the formula I are tested as follows:
The 14-mer strand of duplex TAR-RNA is labelled in the presence of T4 polynucleotide kinase (New England Biolabs, Beverly, MA, USA) using [γ-^32P]ATP (Amersham, Little Chalfont, UK), 10 mM DTT (=dithiothreitol), 50 mM Tris.HCI (pH 7.4, Tris = Tris(hydroxymethyl)aminomethane), 0.77 % (w/v) spermidine (Fluka, Switzerland) and 10 units T4 polynucleotide kinase incubated at 37 °C for 20 min. After heat-treatment (65 °C, 10 min) for enzyme inactivation, the unincorporated [γ-^32P]ATP is removed by chromatography through a Sephadex NAP-10 column (Pharmacia, Uppsala, Sweden) equilibrated with water. Prior to the in-vitro-binding reaction, the labelled 14-mer is annealed to 1.5 equivalents of unlabelled 17-mer by heating to 90 C for 3 min, followed by slow cooling down to 0 °C. […] The CD50-values that are obtained are preferably in the range of from 10 x 10^-9 to 10 x 10^-6 M, more preferably from 10 x 10^-9 to 0.5 x 10^-6 M.

HIV-1/LAV.04 = experiment: inhibition of viral growth of HIV-1 in PBLs (RT activity in cell supernatants); format: cell-based; details: concentration at which 90 % reduction of RT activity versus untreated control is observed; human PBLs infected with HIV-1/LAV.04
Description: In brief, Peripheral Blood Mononuclear Lymphocytes (PBLs) are obtained from the blood of healthy volunteers by leukapheresis. Cells (1 x 10^6/ml) are cultured for 2 days in RPMI-1640 (Gibco), supplemented with 10 % heat-inactivated fetal calf serum (Gibco), 50 mg/ml streptomycin, 50 U/ml penicillin (Amimed), 2 nM glutamine and 10 mM hepes buffer (Gibco). Stimulated lymphocytes are obtained by culturing in the presence of PHA (0.25 mg/ml; Wellcome diagnostics, Templehill, Dartford, England). PHA-lymphocyte stimulation is confirmed by the increase in cell size (Scattergram, FACS analysis). Cells are exposed to HIV-1/LAV.04 (see Barre-Sinoussi et al., Science 220, 868-871 (1983)) for 6 h. […] Medium is changed every 3 days and activity of viral reverse transcriptase (RT activity) is determined in cell supernatants, serving as a measure for the presence of virus and thus of progression of infection according to known procedures (see Willey et al., J. Virol. 62, 353-8 (1991) for details of the method). In brief, RT determination is possible as follows: The RT activity is determined in 50mM Tris (α,α,α--tris(hydroxymethyl)methylamine, ultra pure, Merck, Federal Republic of Germany) pH 7.8; 75mM of KCl, 2mM of dithiothreitol, 5mM of MgCl2; 0.05% Nonidet P-40 (detergent; Sigma, Switzerland); 50 µg/ml of polyadenylic acid (Pharmacia, Sweden); and 1.6 µg/ml of dT(12-18) (Sigma, Switzerland). […]

[3] = concentration giving 50 % decrease in intensity of the retarded band (Tat-TAR complex), 20 nM recombinant Tat, read-out: CD50 (the source's name)

SMILES	MTD at 7 days ([1]; female, Balb/c AnCbif Tif, mouse, in vivo, iv)	IC50 [2]	ED90 (HIV-1/LAV.04)	IC50 [2, 3]	MTD ([1]; single i.v. administration, female mice, dissolved in sterile sodium chloride solution 0.9%, dose where all three animals still survive, 10080 min)
CC(=O)CC(=O)Nc1ccc(/C=C/c2ccc(N3N=C(C)CC3=O)cc2S(=O)(=O)O)c(S(=O)(=O)O)c1 [Example 2, trans-5-(Acetoacetylamino)-2-[2-{4-(4,5-dihydro-3-methyl-5-oxo-1H-pyrazol-1-yl)-2-sulfophenyl}ethenyl]-benzenesulfonic acid]	> 50 mg/kg	20 nM	30000 nM		
CC1=NN(c2ccc(/C=C/c3ccc(Nc4nc(Cl)nc(Nc5ccc(/C=C/c6ccc(N7N=C(C)CC7=O)cc6S(=O)(=O)O)cc5S(=O)(=O)O)n4)c(S(=O)(=O)O)c3)c(S(=O)(=O)O)c2)C(=O)C1 [Example 3, N,N'-Bis(trans-4-{2-[4-(3-methyl-5-oxo-4,5-dihydro-1.H.-pyrazol-1-yl)-2-sulfophenyl]-vinyl}-2-sulfophenyl)-2-chloro-[1,3,5]triazine-4,6-diamine]			20000 nM	50 nM	
CC1=NN(c2ccc(/C=C/c3ccc(Nc4nc(N)nc(Nc5ccc(/C=C/c6ccc(N7N=C(C)CC7=O)cc6S(=O)(=O)O)cc5S(=O)(=O)O)n4)c(S(=O)(=O)O)c3)c(S(=O)(=O)O)c2)C(=O)C1 [Example 4, N,N'-Bis(trans-4-{2-[4-(3-methyl-5-oxo-4,5-dihydro-1.H.-pyrazol-1-yl)-2-sulfophenyl]-vinyl}-2-sulfophenyl)-[1,3,5]triazine-2,4,6-triamine]				50 nM	> 50 mg/kg
CC1=NN(c2ccc(/C=C/c3ccc(NC(=O)Nc4ccc(/C=C/c5ccc(N6N=C(C)C(N=Nc7ccccc7C(=O)O)C6=O)cc5S(=O)(=O)O)cc4S(=O)(=O)O)c(S(=O)(=O)O)c3)c(S(=O)(=O)O)c2)C(=O)C1N=Nc1ccccc1C(=O)O (stereo not drawn) [Example 5, N,N'-Bis(trans-4-{2-[4-(3-methyl-5-oxo-4-(o-carboxyphenylazo)-4,5-dihydro-1.H.-pyrazol-1-yl)-2-sulfo-phenyl]-vinyl}-2-sulfophenyl)-urea tetrasodium salt]				70 nM	
